In US20050096327A1, “Novel norepinephrine reuptake inhibitors for the treatment of central nervous system disorders” (priority 2003, published 2005) one finds Ki data, which are given here for 32 compounds.

In assay [1] the target is T1, human norepinephrine transporter (Homo sapiens, UniProt P23975).
T1 construct: host or cells: HEK-293
In words: hNET receptor binding ([125I]-RTI-55, membranes of transfected HEK-293 cells). As to conditions: 50 pM [125I]-RTI-55, 90 min room temperature; IC50 converted by Cheng-Prusoff. The protocol:
Cell pastes of HEK-293 cells transfected with the human norepinephrine transporter were supplied by the Pfizer Ann Arbor Protein Expression and Production group. Pellets were resuspended in 400 to 700 ml of Krebs-HEPES assay buffer (25 mM HEPES, 122 mM NaCl, 3 mM KCl, 1.2 mM MgSO4, 1.3 mM CaCl2, and 11 mM glucose, pH 7.4) with a Polytron homogenizer at setting 7 for 30 sec. Aliquots of membranes (5 mg/ml protein) were stored in liquid nitrogen until used.
The binding assay was set up in Beckman deep-well polypropylene plates with a total volume of 250 μl containing: drug (10^−5M to 10^−12M), cell membranes, and 50 pM [^125I]-RTI-55 (Perkin Elmer, NEX-272; specific activity 2200 Ci/mmol). The reaction was incubated by gentle agitation for 90 min at room temperature and was terminated by filtration through Whatman GF/C filter plates using a Brandel 96-well plate harvester. Scintillation fluid (100 μl) was added to each well, and bound [^125I]-RTI-55 was determined using a Wallac Trilux Beta Plate Counter. Test compounds were run in duplicate, and specific binding was defined as the difference between binding in the presence and absence of 10 μM desipramine.
Excel and GraphPad Prism software were used for data calculation and analysis. IC50 values were converted to Ki values using the Cheng-Prusoff equation. The Ki values for the hNET are reported below in Table 1.

The target in assay [2] is T2, human serotonin transporter (Homo sapiens, UniProt P31645).
T2 construct: host or cells: HEK-293
In words: hSERT receptor binding ([125I]-RTI-55, membranes of transfected HEK-293 cells). As to conditions: 50 pM [125I]-RTI-55, 90 min room temperature; IC50 converted by Cheng-Prusoff. How it is done:
Cell pastes of HEK-293 cells transfected with the human serotonin transporter were supplied by the Pfizer Ann Arbor Protein Expression and Production Group. Pellets were resuspended in 400 to 700 mL of Krebs-HEPES assay buffer (25 mM HEPES, 122 mM NaCl, 3 mM KCl, 1.2 mM MgSO4, 1.3 mM CaCl2, and 11 mM glucose, pH 7.4) with a Polytron homogenizer at Setting 7 for 30 seconds. Aliquots of membranes (˜2.5 mg/mL protein) were stored in liquid nitrogen until used.
Assays were set up in FlashPlates pre-coated with 0.1% PEI in a total volume of 250 μL containing: drug (10^−5M to 10^−12M), cell membranes, and 50 pM [^125I]-RTI-55 (Perkin Elmer, NEX-272; specific activity 2200 Ci/mmol). The reaction was incubated and gently agitated for 90 minutes at room temperature, and terminated by removal of assay volume. Plates were covered, and bound [^125I]-RTI-55 was determined using a Wallac Trilux Beta Plate Counter. Test compounds were run in duplicate, and specific binding was defined as the difference between binding in the presence and absence of 10 μM citalopram.
Excel and GraphPad Prism software were used for data calculation and analysis. IC50 values were converted to Ki values using the Cheng-Prusoff equation. The Ki values for the hSERT are reported below in Table 1.

Bounds are passed on as bounds.

T1 sequence (P23975 whole entry): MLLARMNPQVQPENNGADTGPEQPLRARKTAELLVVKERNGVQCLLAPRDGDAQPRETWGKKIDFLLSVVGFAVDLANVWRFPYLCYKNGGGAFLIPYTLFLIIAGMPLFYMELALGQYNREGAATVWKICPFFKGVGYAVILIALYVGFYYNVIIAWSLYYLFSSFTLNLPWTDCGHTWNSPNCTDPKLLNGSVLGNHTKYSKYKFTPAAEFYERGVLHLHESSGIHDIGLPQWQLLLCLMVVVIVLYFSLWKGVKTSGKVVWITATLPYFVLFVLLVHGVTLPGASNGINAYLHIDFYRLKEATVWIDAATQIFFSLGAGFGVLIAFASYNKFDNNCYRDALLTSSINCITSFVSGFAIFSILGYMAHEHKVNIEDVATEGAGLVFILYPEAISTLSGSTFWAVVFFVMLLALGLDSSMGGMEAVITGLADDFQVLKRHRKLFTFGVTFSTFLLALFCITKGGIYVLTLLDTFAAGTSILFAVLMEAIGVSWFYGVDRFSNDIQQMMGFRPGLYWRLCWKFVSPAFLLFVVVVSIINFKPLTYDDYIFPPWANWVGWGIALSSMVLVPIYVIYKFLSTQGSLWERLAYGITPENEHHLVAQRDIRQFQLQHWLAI
T2 sequence (P31645 whole entry): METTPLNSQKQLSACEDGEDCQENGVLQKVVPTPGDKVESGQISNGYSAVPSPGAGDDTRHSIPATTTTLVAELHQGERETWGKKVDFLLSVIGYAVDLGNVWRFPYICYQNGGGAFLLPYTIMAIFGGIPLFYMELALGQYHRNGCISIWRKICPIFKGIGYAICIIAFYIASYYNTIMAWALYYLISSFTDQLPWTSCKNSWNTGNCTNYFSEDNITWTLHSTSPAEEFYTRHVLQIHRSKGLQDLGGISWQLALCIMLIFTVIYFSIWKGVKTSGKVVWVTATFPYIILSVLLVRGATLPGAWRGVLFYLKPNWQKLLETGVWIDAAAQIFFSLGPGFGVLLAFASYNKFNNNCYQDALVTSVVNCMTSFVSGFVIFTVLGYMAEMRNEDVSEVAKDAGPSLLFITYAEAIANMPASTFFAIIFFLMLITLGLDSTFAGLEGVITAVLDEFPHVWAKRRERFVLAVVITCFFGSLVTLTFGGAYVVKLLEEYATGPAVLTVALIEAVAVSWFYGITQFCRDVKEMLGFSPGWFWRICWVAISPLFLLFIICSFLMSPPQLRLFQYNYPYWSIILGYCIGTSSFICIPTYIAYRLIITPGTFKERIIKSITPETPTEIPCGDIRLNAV

`Cc1cccc2nc(N3CCNCC3)nc(-c3ccccc3)c12` [Example 145, 5-Methyl-4-phenyl-2-piperazin-1-yl-quinazoline]: the Ki in assay [1] was 16.6 nM; in assay [2] it was 121 nM.

As to `Fc1ccc(-c2nc(NCC3CCNC3)nc3ccccc23)c(F)c1` (stereo not shown) [Example 155, [4-(2,4-Difluoro-phenyl)-quinazolin-2-yl]-pyrrolidin-3-ylmethyl-amine], the figures for the Ki in assay [1] and in assay [2] were 425 nM and above 10000 nM, respectively.

For the compound `CN1CCN(c2nc(-c3c(F)cccc3F)c3ccc(F)cc3n2)CC1` [Example 83, 4-(2,6-Difluoro-phenyl)-7-fluoro-2-(4-methyl-piperazin-1-yl)-quinazoline], the results for the Ki in assay [1] and in assay [2] were 37.6 nM and 314 nM, respectively.

Regarding `Fc1ccc(-c2nc(N3CCNCC3)nc3ccccc23)cc1F` [Example 108, 4-(3,4-difluoro-phenyl)-2-piperazin-1-yl-quinazoline], the Ki was found to be 7.7 nM in assay [1] and 77.7 nM in assay [2].

Consider `Fc1ccc2c(-c3cccc(F)c3F)nc(N3CCNCC3)nc2c1` [Example 111, 4-(2,3-Difluoro-phenyl)-7-fluoro-2-piperazin-1-yl-quinazoline], for which the figures for the inhibition constant Ki in assay [1] and in assay [2] were 18.6 nM and 37.1 nM, respectively.

On to `Clc1cccc(-c2nc(N3CCNCC3)nc3ccccc23)c1` [Example 113, 4-(3-chloro-phenyl)-2-piperazin-1-yl-quinazoline], for which the values for the inhibitory constant (Ki) in assay [1] and in assay [2] were 28.6 nM and 119 nM, respectively.

As to `Fc1cccc(F)c1-c1nc(N2CCNCC2)nc2ccc(Cl)cc12` [Example 131, 4-(2,6-Difluoro-phenyl)-6-chloro-2-piperazin-1-yl-quinazoline], the figures for the Ki in assay [1] and in assay [2] were 30 nM and 4.8 nM, respectively.

Turning to `N[C@@H]1CCN(c2nc(-c3cccc(F)c3F)c3ccccc3n2)C1` [Example 102, R-1-[4-(2,3-Difluoro-phenyl)-quinazolin-2-yl]-pyrrolidin-3-ylamine], the Ki in assay [1] came to 11.4 nM; in assay [2] it was 155 nM.

As for `Fc1ccc2c(-c3ccc(F)c(F)c3)nc(N3CCNCC3)nc2c1` [Example 119, 4-(3,4-Difluoro-phenyl)-7-fluoro-2-piperazin-1-yl-quinazoline], the inhibition constant (Ki) came out at 7.3 nM in assay [1] and 22.7 nM in assay [2].

With `Fc1ccc2c(-c3c(F)cccc3F)nc(C3CCNCC3)nc2c1` [Example 162, 4-(2,6-Difluoro-phenyl)-7-fluoro-2-piperidin-4-yl-quinazoline], the Ki was 11.4 nM in assay [1] and 52.8 nM in assay [2].

For the compound `Fc1ccc(-c2nc(N[C@@H]3CCNC3)nc3cc(F)ccc23)c(F)c1` [Example 143, R-[4-(2,4-Difluoro-phenyl)-7-fluoro-quinazolin-2-yl]-pyrrolidin-3-yl-amine], the Ki in assay [1] worked out at 17.9 nM; in assay [2] it was 9.3 nM.

As to “R-4-(2,4-Difluoro-phenyl)-7-fluoro-2-(2-methyl-piperazin-1-yl)-quinazoline [Example 138]”, the Ki in assay [1] came to 35.4 nM; in assay [2], 24.6 nM.

Consider `CN1CCN(c2nc(-c3ccc(F)c(F)c3)c3ccc(F)cc3n2)CC1` [Example 112, 4-(3,4-Difluoro-phenyl)-7-fluoro-2-(4-methyl-piperazin-1-yl)-quinazoline], for which the inhibition constant (Ki) in assay [1] came to 707 nM; in assay [2], 204 nM.

Consider `CNC1CCN(c2nc(-c3c(F)cccc3F)c3ccccc3n2)CC1` [Example 151, {1-[4-(2,6-Difluoro-phenyl)-quinazolin-2-yl]-piperidin-4-yl}-methyl-amine], for which the Ki worked out at 384 nM in assay [1] and 5540 nM in assay [2].

Take `CNC1CCN(c2nc(-c3cccc(F)c3F)c3ccccc3n2)C1` (stereo not shown) [Example 157, {1-[4-(2,3-Difluoro-phenyl)-quinazolin-2-yl]-pyrrolidin-3-yl}-methyl-amine]: the figures for the Ki in assay [1] and in assay [2] were 148 nM and 4250 nM, respectively.

For `N[C@@H]1CCN(c2nc(-c3cccc(F)c3F)c3ccc(F)cc3n2)C1` [Example 110, R-1-[4-(2,3-Difluoro-phenyl)-7-fluoro-quinazolin-2-yl]-pyrrolidin-3-yl-amine], the figures for the Ki in assay [1] and in assay [2] were 13.6 nM and 57.1 nM, respectively.

Take `Fc1cccc(F)c1-c1nc(N[C@@H]2CCNC2)nc2ccccc12` [Example 99, R-[4-(2,6-Difluoro-phenyl)-quinazolin-2-yl]-pyrrolidin-3-yl-amine]: the Ki in assay [1] came to 45.7 nM; in assay [2], 2900 nM.

Turning to `Fc1cc2nc(N3CCNCC3)nc(-c3cccc(F)c3F)c2cc1F` [Example 123, 4-(2,3-Difluoro-phenyl)-6,7-difluoro-2-piperazin-1-yl-quinazoline], the Ki in assay [1] is 28.5 nM; in assay [2] it was 47.2 nM.

Consider `N[C@@H]1CCN(c2nc(-c3c(F)cccc3F)c3ccccc3n2)C1` [Example 95, R-1-[4-(2,6-Difluoro-phenyl)-quinazolin-2-yl]-pyrrolidin-3-ylamine], for which the Ki is 76.9 nM in assay [1] and 322 nM in assay [2].

As to `C[C@H]1CNCCN1c1nc(-c2cccc(F)c2F)c2ccccc2n1` [Example 88, S-4-(2,3-Difluoro-phenyl)-2-(2-methyl-piperazin-1-yl)-quinazoline], the inhibition constant (Ki) in assay [1] was 18.9 nM; in assay [2] it was 69.3 nM.

`CNC1CCN(c2nc(-c3ccc(F)cc3F)c3ccccc3n2)CC1` [Example 153, {1-[4-(2,4-Difluoro-phenyl)-quinazolin-2-yl]-piperidin-4-yl}-methyl-amine]: the Ki was 150 nM in assay [1] and above 10000 nM in assay [2].

Take `C[C@@H]1CNCCN1c1nc(-c2c(F)cccc2F)c2ccccc2n1` [Example 86, R-4-(2,6-Difluoro-phenyl)-2-(2-methyl-piperazin-1-yl)-quinazoline]: the inhibition constant Ki in assay [1] amounted to 14.4 nM; in assay [2] it was 88.6 nM.

In the case of `NCCCNc1nc(-c2ccc(F)cc2F)c2ccccc2n1` [Example 152, N1-[4-(2,4-Difluoro-phenyl)-quinazolin-2-yl]-propane-1,3-diamine], the results for the inhibition constant (Ki) in assay [1] and in assay [2] were 25.8 nM and above 10000 nM, respectively.

`Fc1ccc2c(-c3ccccc3C(F)(F)F)nc(N3CCNCC3)nc2c1` [Example 160, 7-Fluoro-2-piperazin-1-yl-4-(2-trifluoromethyl-phenyl)-quinazoline]: the Ki in assay [1] worked out at 60.7 nM; in assay [2] it was 976 nM.

As for `C[C@H]1CNCCN1c1nc(-c2c(F)cccc2F)c2ccccc2n1` [Example 127, S-4-(2,6-Difluoro-phenyl)-2-(2-methyl-piperazin-1-yl)-quinazoline], the Ki in assay [1] was 33.9 nM; in assay [2], 58.6 nM.

Consider `N[C@H]1CCN(c2nc(-c3cccc(F)c3F)c3ccc(F)cc3n2)C1` [Example 109, S-1-[4-(2,3-Difluoro-phenyl)-7-fluoro-quinazolin-2-yl]-pyrrolidin-3-yl-amine], for which the inhibition constant Ki in assay [1] is 13.9 nM; in assay [2] it was 30.4 nM.

As for `Fc1ccc(-c2nc(NC3CCNCC3)nc3ccccc23)c(F)c1` [Example 154, [4-(2,4-Difluoro-phenyl)-quinazolin-2-yl]-piperidin-4-yl-amine], the inhibitory constant (Ki) in assay [1] was 58.1 nM; in assay [2], 5370 nM.

`CC[C@H]1CNCCN1c1nc(-c2c(F)cccc2F)c2ccccc2n1` [Example 164, S-4-(2,6-Difluoro-phenyl)-2-(2-ethyl-piperazin-1-yl)-quinazoline]: the inhibitory constant (Ki) in assay [1] was determined as 31.8 nM; in assay [2], 18 nM.

On to `CNC1CCN(c2nc(-c3ccc(F)cc3F)c3ccccc3n2)C1` (stereo not shown) [Example 150, {1-[4-(2,4-Difluoro-phenyl)-quinazolin-2-yl]-pyrrolidin-3-yl}-methyl-amine], for which the Ki amounted to 41.5 nM in assay [1] and 2700 nM in assay [2].

On to `Fc1ccc2c(-c3ccccc3)nc(N3CCNCC3)nc2c1` [Example 97, 7-Fluoro-4-phenyl-2-piperazin-1-yl-quinazoline], for which the inhibitory constant (Ki) in assay [1] is 13.8 nM; in assay [2] it was 49.6 nM.

For the compound `Fc1cc2nc(N3CCNCC3)nc(-c3c(F)cccc3F)c2cc1F` [Example 146, 4-(2,6-Difluoro-phenyl)-6,7-difluoro-2-piperazin-1-yl-quinazoline], the inhibition constant Ki is 31.5 nM in assay [1] and 19 nM in assay [2].

As for `C[C@@H]1CNCCN1c1nc(-c2cccc(F)c2F)c2ccccc2n1` [Example 87, R-4-(2,3-Difluoro-phenyl)-2-(2-methyl-piperazin-1-yl)-quinazoline], the Ki in assay [1] stood at 20 nM; in assay [2], 99.1 nM.

A word on the Ki: it is a dissociation constant, usually derived from enzyme kinetics or from competition with a known ligand. The low end stands for tighter binding, the high end for weaker binding.
